Literature values as cited in patent US20110008431A1, “THERAPEUTIC TABLET FOR POSTHERPETIC NEURALGIA AND METHOD OF TREATING POSTHERPETIC NEURALGIA” (TOYO BOSEKI KABUSHIKI KAISHA, priority 2007, published 2011).

Test system: patient with neuropathic pain
Conditions: devazepide in combination with an opioid analgesic agent such as morphine, Patent Document 1

**Q.** For `CN1C(=O)[C@@H](NC(=O)c2cc3ccccc3[nH]2)N=C(c2ccccc2)c2ccccc21` [devazepide], which “subjects who attained pain relief” value is on record?
**A.** 10 of 41
